Here are results for 17 compounds from patent publication US20250346600A1, “TRICYCLIC DERIVATIVES AND RELATED USES” (MOMA Therapeutics, Inc., priority 2023, published 2025).

For assay [1], the target named is T1, Full length WRN protein (aa 2-1432) (Homo sapiens (Human), UniProt Q14191). The assay is described as follows: WRN ATPase ADP-Glo biochemical assay, Assay Format B (100 μM ATP). The note with it: 0.25 nM WRN, 100 nM C6.18 ssDNA, 60 min preincubation, read-out: ATPase ADPGlo AC50 (uM)- Assay Format B. Background: ADP-Glo turns the ADP formed in a reaction into a luminescent signal.
T1 sequence (Q14191 2-1432): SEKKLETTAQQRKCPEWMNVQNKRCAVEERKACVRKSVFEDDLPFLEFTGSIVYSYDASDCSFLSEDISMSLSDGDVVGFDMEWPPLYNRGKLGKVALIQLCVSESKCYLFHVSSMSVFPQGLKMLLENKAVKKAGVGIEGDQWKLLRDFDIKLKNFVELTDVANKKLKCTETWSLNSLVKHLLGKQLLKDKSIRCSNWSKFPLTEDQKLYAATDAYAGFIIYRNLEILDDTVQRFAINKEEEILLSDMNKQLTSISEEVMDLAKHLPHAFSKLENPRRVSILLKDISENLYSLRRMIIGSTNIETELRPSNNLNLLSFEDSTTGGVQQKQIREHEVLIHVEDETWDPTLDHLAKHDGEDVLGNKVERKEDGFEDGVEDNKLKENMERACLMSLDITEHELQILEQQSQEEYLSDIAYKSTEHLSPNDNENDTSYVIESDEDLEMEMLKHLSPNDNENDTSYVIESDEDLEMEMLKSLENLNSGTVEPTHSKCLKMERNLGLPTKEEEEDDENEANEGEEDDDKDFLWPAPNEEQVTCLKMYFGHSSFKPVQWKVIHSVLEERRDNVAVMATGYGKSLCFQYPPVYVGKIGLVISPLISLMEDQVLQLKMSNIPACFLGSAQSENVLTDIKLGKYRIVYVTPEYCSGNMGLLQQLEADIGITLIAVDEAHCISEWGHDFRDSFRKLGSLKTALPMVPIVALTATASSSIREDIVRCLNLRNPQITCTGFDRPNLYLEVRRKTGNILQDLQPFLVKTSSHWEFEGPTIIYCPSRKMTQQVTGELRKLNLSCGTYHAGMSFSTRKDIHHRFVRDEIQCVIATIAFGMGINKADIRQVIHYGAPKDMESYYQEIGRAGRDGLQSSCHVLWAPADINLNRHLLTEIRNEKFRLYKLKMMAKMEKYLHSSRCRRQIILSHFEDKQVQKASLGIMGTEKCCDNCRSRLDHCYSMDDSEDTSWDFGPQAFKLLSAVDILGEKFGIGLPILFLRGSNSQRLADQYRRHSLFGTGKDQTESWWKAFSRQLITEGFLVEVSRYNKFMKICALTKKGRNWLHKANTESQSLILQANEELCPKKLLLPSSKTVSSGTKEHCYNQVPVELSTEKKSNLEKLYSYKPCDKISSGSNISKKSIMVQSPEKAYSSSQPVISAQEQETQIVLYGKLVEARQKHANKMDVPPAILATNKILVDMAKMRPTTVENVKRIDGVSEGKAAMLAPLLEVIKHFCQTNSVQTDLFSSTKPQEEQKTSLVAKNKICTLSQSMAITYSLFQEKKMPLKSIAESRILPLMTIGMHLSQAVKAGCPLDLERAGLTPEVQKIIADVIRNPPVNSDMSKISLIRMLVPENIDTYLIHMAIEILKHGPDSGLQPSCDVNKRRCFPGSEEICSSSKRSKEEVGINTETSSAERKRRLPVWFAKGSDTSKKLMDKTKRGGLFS

In assay [2] the target is T1, Full length WRN protein (aa 2-1432). The assay is described as follows: WRN ATPase ADP-Glo biochemical assay, Assay Format A (10 μM ATP). The following applies: 0.25 nM WRN, 100 nM C6.18 ssDNA, 30 min preincubation, read-out: ATPase ADPGlo AC50 (uM)- Assay Format A. An outline of the steps: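 ADP-Glo luminescence measured hydrolysis of ATP by purified, baculovirus-expressed N-terminally tagged full-length WRN. Enzyme (0.5 nM) was preincubated 30 min with compound, then 200 nM ssDNA C6.18 plus 20 μM ATP were added (pre-mix levels) for 30 min at RT. IC50s come from four-parameter fits, geometric mean of at least two trials.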

The subject of the next assay is HCT116 cells. The assay is described as follows: HCT116 (MSI) 7 day viability, CellTiter Glo. The assay is classed as cell-based. The following applies: 7 days, read-out: HCT116 (MSI) Viability 7 Day Abs AC50. The method, boiled down: (§1)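 For each line, compound dilution series (3-fold, 10 points) met a defined seeding density—HCT116 50, HT29 500 cells/well—followed by 7 days at 37 °C. Luminescent ATP signal, background-corrected with no-cell wells, gave four-parameter logistic IC50s.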

The test system of the next assay is HT29 cells. Put plainly: HT29 (MSS) 7 day viability, CellTiter Glo. It counts as cell-based. The following applies: 7 days, read-out: HT29 (MSS) Viability 7 Day CTGAbs AC50. The method, boiled down: as §1
(In general: In ATP-based viability assays light output follows the ATP content of the culture.)

As a reminder, the AC50 is the concentration giving half of the maximal activity seen.

Like-named read-outs stand apart in the source and are kept apart here.

For the compound `C=CC(=O)N1CCc2nn(-c3ccc(C(C)C)cc3)c3c2C(C1)N(C(=O)c1ccc(Br)c(NCC(F)(F)F)c1)CC3` (centres unmarked) [Compound 104, 1-(5-(4-bromo-3-((2,2,2-trifluoroethyl)amino)benzoyl)-2-(4-isopropylphenyl)-2,3,4,5,5a,6,8,9-octahydro-7H-1,2,5,7-tetraazabenzo[cd]azulen-7-yl)prop-2-en-1-one], the AC50 in assay [1] was more than 0.055 µM; in assay [2], 0.005 to 0.015 µM; in the assay with HCT116 cells (Homo sapiens, HCT-116, 168 h), 1 to 100 nM; with HT29 cells (Homo sapiens, HT-29, 168 h), more than 3000 nM.

On to `C=CC(=O)N1CCc2nn(-c3ccc(C(C)C)cc3)c3c2C(C1)N(C(=O)c1ccc(Br)c(-c2cc[nH]n2)c1)CC3` (centres unmarked) [Compound 106, 1-(5-(4-bromo-3-(1H-pyrazol-3-yl)benzoyl)-2-(4-isopropylphenyl)-2,3,4,5,5a,6,8,9-octahydro-7H-1,2,5,7-tetraazabenzo[cd]azulen-7-yl)prop-2-en-1-one], for which the AC50 in assay [1] is more than 0.055 µM; in assay [2], 0.0015 to 0.005 µM; with HCT116 cells (Homo sapiens, HCT-116, 168 h), 250 to 500 nM; in the assay with HT29 cells (Homo sapiens, HT-29, 168 h) it was more than 3000 nM.

On to `C=CC(=O)N1CCc2nn(-c3ccc(C4CCC4)cc3O)c3c2C(C1)N(C(=O)c1ccc(OC(F)(F)F)cc1)CC3` (centres unmarked) [Compound 107, 1-(2-(4-cyclobutyl-2-hydroxyphenyl)-5-(4-(trifluoromethoxy)benzoyl)-2,3,4,5,5a,6,8,9-octahydro-7H-1,2,5,7-tetraazabenzo[cd]azulen-7-yl)prop-2-en-1-one], for which the AC50 in assay [1] was 0.015 to 0.055 µM; in assay [2], 0.005 to 0.015 µM; in the assay on HCT116 cells (Homo sapiens, HCT-116, 168 h), 100 to 250 nM; with HT29 cells (Homo sapiens, HT-29, 168 h), more than 3000 nM.

`C=CC(=O)N1CCc2nn(-c3ccc(C4CC4)cc3)c3c2C(C1)N(C(=O)c1ccc(C(F)(F)F)nc1O)CC3` (centres unmarked) [Compound 109, 1-(2-(4-cyclopropylphenyl)-5-(2-hydroxy-6-(trifluoromethyl)nicotinoyl)-2,3,4,5,5a,6,8,9-octahydro-7H-1,2,5,7-tetraazabenzo[cd]azulen-7-yl)prop-2-en-1-one]: the AC50 was 0.015 to 0.055 µM in assay [1]; 0.005 to 0.015 µM in assay [2]; 250 to 500 nM in the assay with HCT116 cells (Homo sapiens, HCT-116, 168 h); more than 3000 nM with HT29 cells (Homo sapiens, HT-29, 168 h).

Turning to `C=CC(=O)N1CCc2nn(-c3ccc(C4CC4)cc3)c3c2C(C1)N(C(=O)c1cnc2c(C)nn(C)c2c1)CC3` (centres unmarked) [Compound 110, 1-(2-(4-cyclopropylphenyl)-5-(1,3-dimethyl-1H-pyrazolo[4,3-b]pyridine-6-carbonyl)-2,3,4,5,5a,6,8,9-octahydro-7H-1,2,5,7-tetraazabenzo[cd]azulen-7-yl)prop-2-en-1-one], the AC50 in assay [1] is more than 0.055 µM; in assay [2], 0.005 to 0.015 µM; in the assay with HCT116 cells (Homo sapiens, HCT-116, 168 h), 100 to 250 nM; in the assay with HT29 cells (Homo sapiens, HT-29, 168 h), more than 3000 nM.

As to `C=CC(=O)N1CCc2nn(-c3ccc(C4CC4)cc3)c3c2C(C1)N(C(=O)c1cnc(C(F)(F)F)c(C#N)c1)CC3` (centres unmarked) [Compound 112, 5-(7-acryloyl-2-(4-cyclopropylphenyl)-3,4,5,5a,6,7,8,9-octahydro-2H-1,2,5,7-tetraazabenzo[cd]azulene-5-carbonyl)-2-(trifluoromethyl)nicotino nitrile], the concentration at half-maximal activity (AC50) in assay [1] was more than 0.055 µM; in assay [2], 0.005 to 0.015 µM; in the assay on HCT116 cells (Homo sapiens, HCT-116, 168 h), 100 to 250 nM; with HT29 cells (Homo sapiens, HT-29, 168 h) it was more than 3000 nM.

As for `C=CC(=O)N1CCc2nn(-c3ccc(C4CC4)cc3)c3c2C(C1)N(C(=O)c1ccc(Br)nc1C)CC3` (centres unmarked) [Compound 114, 1-(5-(6-bromo-2-methylnicotinoyl)-2-(4-cyclopropylphenyl)-2,3,4,5,5a,6,8,9-octahydro-7H-1,2,5,7-tetraazabenzo[cd]azulen-7-yl)prop-2-en-1-one], the AC50 was more than 0.055 µM in assay [1]; 0.005 to 0.015 µM in assay [2]; 250 to 500 nM with HCT116 cells (Homo sapiens, HCT-116, 168 h); more than 3000 nM in the assay on HT29 cells (Homo sapiens, HT-29, 168 h).

In the case of `C=CC(=O)N1CCc2nn(-c3ccc(C4CC4)cc3)c3c2C(C1)N(C(=O)c1ccc(Br)nc1N)CC3` (centres unmarked) [Compound 117, 1-(5-(2-amino-6-bromonicotinoyl)-2-(4-cyclopropylphenyl)-2,3,4,5,5a,6,8,9-octahydro-7H-1,2,5,7-tetraazabenzo[cd]azulen-7-yl)prop-2-en-1-one], the AC50 was 0.005 to 0.015 µM in assay [1]; 0.0015 to 0.005 µM in assay [2]; 1 to 100 nM in the assay with HCT116 cells (Homo sapiens, HCT-116, 168 h); more than 3000 nM with HT29 cells (Homo sapiens, HT-29, 168 h).

Take `C=CC(=O)N1CCc2nn(-c3ccc(C4CC4)cc3)c3c2C(C1)N(C(=O)c1cnc(C(F)(F)F)cc1N)CC3` (centres unmarked) [Compound 128, 1-(5-(4-amino-6-(trifluoromethyl)nicotinoyl)-2-(4-cyclopropylphenyl)-2,3,4,5,5a,6,8,9-octahydro-7H-1,2,5,7-tetraazabenzo[cd]azulen-7-yl)prop-2-en-1-one]: the AC50 in assay [1] is 0.005 to 0.015 µM; in assay [2], less than 0.0015 µM; in the assay with HCT116 cells (Homo sapiens, HCT-116, 168 h) it was 1 to 100 nM; in the assay with HT29 cells (Homo sapiens, HT-29, 168 h), more than 3000 nM.

Turning to `C=CC(=O)N1CC(OC2CC2)c2nn(-c3ccc(C4CCC4)cc3)c3c2C(C1)N(C(=O)c1cnc(C(F)(F)F)cc1N)CC3` (centres unmarked) [Compound 129, 1-(5-(4-amino-6-(trifluoromethyl)nicotinoyl)-2-(4-cyclobutylphenyl)-9-cyclopropoxy-2,3,4,5,5a,6,8,9-octahydro-7H-1,2,5,7-tetraazabenzo[cd]azulen-7-yl)prop-2-en-1-one], the AC50 in assay [1] was 0.0015 to 0.005 µM; in assay [2], less than 0.0015 µM; in the assay on HCT116 cells (Homo sapiens, HCT-116, 168 h) it was 1 to 100 nM; with HT29 cells (Homo sapiens, HT-29, 168 h), 1000 to 3000 nM.

For the compound `C=CC(=O)N1CC(C)c2nn(-c3ccc(C4CCC4)cc3O)c3c2C(C1)N(C(=O)c1cnc(C(F)(F)F)cc1N)CC3` (centres unmarked) [Compound 130, 1-(5-(4-amino-6-(trifluoromethyl)nicotinoyl)-2-(4-cyclobutyl-2-hydroxyphenyl)-9-methyl-2,3,4,5,5a,6,8,9-octahydro-7H-1,2,5,7-tetraazabenzo[cd]azulen-7-yl)prop-2-en-1-one], the AC50 was 0.005 to 0.015 µM in assay [1]; less than 0.0015 µM in assay [2]; 1 to 100 nM in the assay with HCT116 cells (Homo sapiens, HCT-116, 168 h); more than 3000 nM in the assay with HT29 cells (Homo sapiens, HT-29, 168 h).

As to `C=CC(=O)N1CCc2nn(-c3ccc(C4CC4)cc3)c3c2C(C1)N(C(=O)c1ccc(Br)c2[nH]nc(N)c12)CC3` (centres unmarked) [Compound 131, 1-(5-(3-amino-7-bromo-1H-indazole-4-carbonyl)-2-(4-cyclopropylphenyl)-2,3,4,5,5a,6,8,9-octahydro-7H-1,2,5,7-tetraazabenzo[cd]azulen-7-yl)prop-2-en-1-one], the concentration at half-maximal activity (AC50) in assay [1] was 0.005 to 0.015 µM; in assay [2], less than 0.0015 µM; with HCT116 cells (Homo sapiens, HCT-116, 168 h), 1 to 100 nM; with HT29 cells (Homo sapiens, HT-29, 168 h) it was more than 3000 nM.

On to `C=CC(=O)N1CCc2nn(-c3ccc(C45CC(C4)C5)cc3)c3c2C(C1)N(C(=O)c1cnc(C(F)(F)F)cc1N)CC3` (centres unmarked) [Compound 133, 1-(5-(4-amino-6-(trifluoromethyl)nicotinoyl)-2-(4-(bicyclo[1.1.1]pentan-1-yl)phenyl)-2,3,4,5,5a,6,8,9-octahydro-7H-1,2,5,7-tetraazabenzo[cd]azulen-7-yl)prop-2-en-1-one], for which the AC50 was 0.005 to 0.015 µM in assay [1]; less than 0.0015 µM in assay [2]; 1 to 100 nM in the assay with HCT116 cells (Homo sapiens, HCT-116, 168 h); more than 3000 nM in the assay on HT29 cells (Homo sapiens, HT-29, 168 h).

On to `C=CC(=O)N1CCc2nn(-c3ccc(C4CCC4)cc3O)c3c2C(C1)N(C(=O)c1cnc(C(F)(F)F)c(F)c1N)CC3` (centres unmarked) [Compound 134, 1-(5-(4-amino-5-fluoro-6-(trifluoromethyl)nicotinoyl)-2-(4-cyclobutyl-2-hydroxyphenyl)-2,3,4,5,5a,6,8,9-octahydro-7H-1,2,5,7-tetraazabenzo[cd]azulen-7-yl)prop-2-en-1-one], for which the AC50 is 0.0015 to 0.005 µM in assay [1]; less than 0.0015 µM in assay [2]; 1 to 100 nM in the assay with HCT116 cells (Homo sapiens, HCT-116, 168 h); more than 3000 nM with HT29 cells (Homo sapiens, HT-29, 168 h).

In the case of `C=CC(=O)N1CC(C)c2nn(-c3ccc(C4CCC4)cc3O)c3c2C(C1)N(C(=O)c1cnc(C(F)(F)F)cc1N)CC3` (centres unmarked) [Compound 135, 1-(5-(4-amino-6-(trifluoromethyl)nicotinoyl)-2-(4-cyclobutyl-2-hydroxyphenyl)-9-methyl-2,3,4,5,5a,6,8,9-octahydro-7H-1,2,5,7-tetraazabenzo[cd]azulen-7-yl)prop-2-en-1-one], the AC50 in assay [1] was 0.005 to 0.015 µM; in assay [2], less than 0.0015 µM; in the assay on HCT116 cells, 1 to 100 nM; with HT29 cells, more than 3000 nM.

As to `C=CC(=O)N1CCc2nn(-c3ccc(C(F)(F)F)nc3N)c3c2C(C1)N(C(=O)c1ccc(Br)c2[nH]c(C(F)F)nc12)CC3` (centres unmarked) [Compound 136, 1-(2-(2-amino-6-(trifluoromethyl)pyridin-3-yl)-5-(7-bromo-2-(difluoromethyl)-1H-benzo[d]imidazole-4-carbonyl)-2,3,4,5,5a,6,8,9-octahydro-7H-1,2,5,7-tetraazabenzo[cd]azulen-7-yl)prop-2-en-1-one], the AC50 is 0.015 to 0.055 µM in assay [1]; 0.0015 to 0.005 µM in assay [2]; 100 to 250 nM in the assay on HCT116 cells (Homo sapiens, HCT-116, 168 h); more than 3000 nM in the assay with HT29 cells (Homo sapiens, HT-29, 168 h).

Regarding `C=CC(=O)N1CCc2nn(-c3ccc(C4CCC4)cc3O)c3c2C(C1)N(C(=O)c1cnc(C(F)(F)F)cc1N)CC3` (centres unmarked) [Compound 138, 1-(5-(4-amino-6-(trifluoromethyl)nicotinoyl)-2-(4-cyclobutyl-2-hydroxyphenyl)-2,3,4,5,5a,6,8,9-octahydro-7H-1,2,5,7-tetraazabenzo[cd]azulen-7-yl)prop-2-en-1-one], the AC50 in assay [1] is 0.005 to 0.015 µM; in assay [2] it was less than 0.0015 µM; with HCT116 cells (Homo sapiens, HCT-116, 168 h), 1 to 100 nM; in the assay on HT29 cells (Homo sapiens, HT-29, 168 h) it was more than 3000 nM.
